The subject of assay [1] is NARF2 cells. Briefly: Rescue of FMN2 depletion by co-transfection of siRNAs, Western blot (FIG. 14). The class given is cell-based, human. The settings on record: co-transfection of both PA28γ siRNA and Skp2 siRNA with FMN2 siRNA, with/without p14ARF induction. The procedure: (§1) siRNA experiments. siRNA duplex oligo ribonucleotides were synthesised by MWG and transfected using Interferin (Polyplus) as per manufacturers instruction. In brief, cells were plated the day before transfection at the concentration of 2×10^5 cells per well in 6 well plates. The following day, cells were transfected with the final concentration of 5 nM of siRNA oligoribonucleotides in fresh media, final volume of 2.2 ml. Cells were incubated for a further 48 hours prior to harvesting. IPTG was added for 24 hours unless otherwise stated. siRNA sequences are described here (Control: 5′-CAGUCGCGUUUGCGACUGG-3′, FMN2-5′-GUAUACCAGGUCUCCUCAA-3′, PA28γ-5′-GAAUCAAUAUGUCACUCUA-3′, Skp2-5′-ACUCAAGUCCAGCCAUAAG-3′).).
FIG. 14. […] Detection of protein levels for endogenous FMN2, Skp2, PA28G, p21, p14ARF and Actin following transfection of NARF2 cells using either siRNAs for FMN2 (see FIG. 15A for location of siRNA target sequence), PA28γ, Skp2 and control (Control) with/without p14ARF induction (+/blank). An equivalent amount of NARF2 extract was loaded for each lane and the proteins separated by SDS PAGE, electroblotted and probed both with a monoclonal anti-PA28γ and polyclonal anti-FMN2, anti-Skp2, anti-p21, anti-p14ARF and with anti-Actin as a loading control.
On the technique in general: In western blotting, separated proteins are transferred to a membrane and probed.

The test system of assay [2] is NARF2 cells. Briefly: siRNA knock-down in NARF2 cells, protein levels by blot (FIG. 10). Format: cell-based, human. The settings on record: 5 nM siRNA, 48 hours, with or without 24 hours IPTG. The procedure: FIG. 10. siRNA approach for FMN2. NARF2 cells were treated with Control, DNA-PK, or FMN2 siRNA and harvested 48 hours with or without 24 hours IPTG induction.
siRNA duplex oligonucleotides were synthesised by MWG and transfected using Interferin (Polyplus) as per manufacturers instruction. In brief, cells were plated the day before transfection at the concentration of 2×10^5 cells per well in 6 well plates. The following day, cells were transfected with the final concentration of 5 nM of siRNA oligonucleotides in fresh media, final volume of 2.2 ml. Cells were incubated for additional 48 hours prior to harvesting. IPTG was added for 24 hours unless otherwise stated. siRNA sequences were described here (Control: CAGUCGCGUUUGCGACUGG, FMN2-GUAUACCAGGUCUCCUCAA). MG132 was purchased from Merck Chemicals and used at the final concentration of 50 μM.
To analyse the function of the FMN2 protein in cells, we designed five siRNAs to suppress FMN2 expression. […] (FIG. 10a). […] In contrast, siRNA knock-down of DNA-PK causes a decrease in the levels of both puma and p21 (FIG. 10b).
as §1

The results in this text go back to US20120082684A1, “DIAGNOSIS AND TREATMENT OF CELL PROLIFERATION AND DIFFERENTIATION DISORDERS BASED ON THE FMN2 GENE” (UNIVERSITY COURT OF THE UNIVERSITY OF DUNDEE, priority 2009, published 2012).

Take 5′-ACUCAAGUCCAGCCAUAAG-3′ [Skp2 siRNA]: the “rescue of p21 inactivation following FMN2 depletion” value in the assay with NARF2 cells [1] is given as “partially rescued”.
As to 5′-GUAUACCAGGUCUCCUCAA-3′ [FMN2 siRNA], in the assay with NARF2 cells [2], the “FMN2 expression after siRNA” value is “successful in suppressing FMN2 expression”, the “effect on Hdm2” value is “didn't see any effect”, the “effect on p53” value is listed as “didn't see any effect” and the p21 level result was “severely reduced”. Also, in the assay with NARF2 cells [2], the puma level result is listed as “does not affect puma levels”.
In the case of 5′-GAAUCAAUAUGUCACUCUA-3′ [PA28γ siRNA], the “rescue of p21 inactivation following FMN2 depletion” value with NARF2 cells [1] was “partially rescued”.
